PMC9828493, “Design, Synthesis, and in Vitro Evaluation of 4‐(4‐Hydroxyphenyl)piperazine‐Based Compounds Targeting Tyrosinase” (Chemmedchem, 2022)
Where “and” joins values, the source holds several entries; their conditions need not be identical. Identical values can stand only once.

Tests used:
[1] = system: tyrosinase activity in α‐MSH‐stimulated B16F10 cells; experiment: Tyrosinase zymography (L-DOPA staining) in α-MSH-stimulated B16F10 cells; type: cell-based, Murine; details: Mus musculus, B16-F10; α-MSH (100 nM)-stimulated B16F10 cells, 48 h, 25 μM; read-out: inhibition of tyrosinase activity / melanogenesis
Method: ImageJ software was used to determine the intensity of bands.
A day after seeding the B16F10 cells (6×10^4 cells/mL) the culture medium was substituted by fresh one supplemented with 100 nM α‐MSH.
After incubation for 48 h, cells were washed and lysed using phosphate buffer (25 mM, pH 6.8) containing Triton X‐100 (1 %) and phenylmethyl‐sulfonyl fluoride (0.1 mM). Cellular lysates were centrifugated at 13000 rpm for 20 min at 4 °C. The protein content was determined by Bradford method and BSA was used as standard.
SDS‐polyacrylamide gel electrophoresis was used to resolve the protein extracts previously mixed with 10 mM Tris‐HCl buffer, pH 7.0, containing 1 % SDS, without mercaptoethanol.
After running, gel was rinsed in phosphate buffer (0.1 M, pH 7.0) and equilibrated for 30 min twice. […] Tyrosinase activity was visualized in the gel as dark melanin‐containing bands

[2] = molecular target: T1, TYR from Agaricus bisporus (AbTYR) (Agaricus bisporus, UniProt C7FF04); experiment: Kinetic analysis of AbTYR inhibition (Lineweaver-Burk plots, L-DOPA); details: L-DOPA 0.6–5 mM, three inhibitor concentrations, phosphate buffer pH 6.8
Method: Kinetics studies were performed in presence of three different concentrations of selected inhibitors, L‐DOPA (0.6–5 mM) and AbTYR in phosphate buffer (0.05 M, pH 6.8).
(§1) absorbance was measured after 60 or 1 min of incubation time in the reaction mixture containing
(§2) L-tyrosine or L-DOPA, respectively. The inhibitory activity was expressed as inhibition percentage
(§3) calculated by interpolation of the dose-response curves. Kojic acid [5-hydroxy-2-(hydroxymethyl)-
(§4) 4H-pyran-4-one], a fungal secondary metabolite used as skin whitening agent, was employed as a
(§5) positive standard (10–50 μM). A spectrophotometer (Agilent Cary 60 UV-Vis Spectrophotometer)
(§6) The inhibition kinetics on the tyrosinase were studied using Lineweaver-Burk double reciprocal
(§7) plots. The reaction mixture consisted of four different concentrations of the substrate L-DOPA
(§8) (0.6–5 mM), and mushroom tyrosinase in phosphate buffer (0.05 M, pH 6.8). Three different
(§9) concentrations were used for the analysis. Preincubation and measurement time were the same
(§10) as discussed in mushroom tyrosinase inhibition assay. The Michaelis-Menten constant (Km) and
(§11) maximal velocity (Vmax) of tyrosinase were determined by Lineweaver-Burk plots.

[3] = molecular target: T1, TYR from Agaricus bisporus (AbTYR); experiment: Inhibition of diphenolase activity of AbTYR (L-DOPA as substrate); details: IC50 [μM]±SD, inhibition of diphenolase activity of AbTYR, L-DOPA substrate, three replicates;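 further: absorbance measured spectrophotometrically with L-DOPA as substrate, inhibition expressed as percent relative to control sample, IC50 interpolated from dose-response curves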
Method: as §1, §2, §3, §4, §5, §6, §7, §8, §9, §10, §11

[4] = molecular target: T1, TYR from Agaricus bisporus (AbTYR); experiment: Inhibition of monophenolase activity of AbTYR (L-Tyr as substrate); type: biochemical; parameters: purchased Sigma Chemical Co. (St. Louis, MO, USA); details: 40 μM (Figure S69)
Method: Mushroom tyrosinase inhibition assay
6.8). […] Subsequently, 0.05 mL of
L-tyrosine or L-DOPA, respectively.
respect to control sample.
positive standard (10–50 μM).
was used for absorbance measurements.
Kinetic analysis of the tyrosinase inhibition

[5] = ABTS radical scavenging antioxidant assay; details: mean ± SD of three independent experiments
Method: ABTS [2,20‐azinobis‐(3‐ethylbenzothiazoline‐6‐sulfonic acid)] assay was used to determine the total free radical‐scavenging capacity of compounds. 6‐hydroxy‐2,5,7,8‐tetramethylchromane‐2‐carboxylic acid (Trolox) was used as the reference antioxidant.[15]
The ABTS⋅^+ method is based on the capacity of an antioxidant to scavenge the free ABTS⋅^+. To produce this radical an aqueous mixture of 7 mM ABTS with 2.45 mM potassium persulfate was required.
The ABTS solution was kept in the dark, at room temperature, for 24 h before use. The ABTS⋅^+ mixture was diluted, and each compound (10 μL) was added to solution. After 1 min of incubation the absorbance was recorded at 734 nm. Afterwards the decrease in A734 was calculated and referred to the Trolox standard curve. Antioxidant activity was expressed as concentration of the compound to give a 50 % reduction in the original absorbance (EC50).

B16F10 cells = experiment: Cell viability assay (MTT); type: cell-based, Murine; details: 48 h, until a concentration of 10 μM
Method: Murine melanoma B16F10 cells (CRL‐6475) were cultured as previous reported.[17]
3‐(4,5‐Dimethylthiazol‐2‐yl)‐2,5‐diphenyltetrazolium bromide (MTT) was used to measure the cells viability. Cells were seeded in 96‐well plates for 24 hours with a density of 5x10^3 for well. Cells were then treated for 48 h with compounds (ranging from 4 μM to 100 μM). After incubation at 37 °C and 5 % of CO2, 100 μL of MTT reagent were added to the cells and incubated 3 h at 37 °C. After adding DMSO the absorbance was determined at 560 nm. The amount of living cells in treated samples relative to untreated controls (100 %) provided the cell viability. The mean value and standard deviation (SD) were calculated from triplicate experiments.
different concentrations of compounds (4-100 μM) and their viability was evaluated by MTT assay. Data
represent mean ± SD of triplicate experiments.

T1 sequence (C7FF04 1-392 limits assumed): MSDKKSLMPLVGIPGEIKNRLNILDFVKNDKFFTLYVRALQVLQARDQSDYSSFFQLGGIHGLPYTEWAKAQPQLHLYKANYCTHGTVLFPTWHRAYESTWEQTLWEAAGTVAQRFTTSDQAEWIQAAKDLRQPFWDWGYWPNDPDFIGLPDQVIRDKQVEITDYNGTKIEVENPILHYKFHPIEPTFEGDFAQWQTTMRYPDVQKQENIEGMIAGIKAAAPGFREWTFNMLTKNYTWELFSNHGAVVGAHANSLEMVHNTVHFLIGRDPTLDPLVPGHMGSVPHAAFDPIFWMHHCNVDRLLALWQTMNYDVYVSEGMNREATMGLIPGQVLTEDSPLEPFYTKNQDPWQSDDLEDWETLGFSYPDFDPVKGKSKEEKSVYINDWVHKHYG

| Structure (SMILES) | IC50 [3] | melting point | other results |
| --- | --- | --- | --- |
| O=c1cc(CO)occ1O [KA, kojic acid, reference compound] | – | – | inhibition at 25 µM [1]: 17% |
| Oc1ccc(N2CCNCC2)cc1 [compound 1, 4‐(1‐piperazinyl)phenol] | 28.9 ± 4.9 µM | – | mechanism of inhibition of AbTYR [2]: competitive inhibitor |
| O=C(c1ccccc1)N1CCN(c2ccc(O)cc2)CC1 [compound 2, (4‐(4‐Hydroxyphenyl)piperazin‐1‐yl)(phenyl)methanone] | 73.2 ± 3.5 µM | – | – |
| O=C(c1ccc(-c2ccccc2)cc1)N1CCN(c2ccc(O)cc2)CC1 [compound 3, (4‐(4‐Hydroxyphenyl)piperazin‐1‐yl)(biphenyl‐4‐yl)methanone] | 128 ± 4.1 µM | – | – |
| O=C(c1ccccc1F)N1CCN(c2ccc(O)cc2)CC1 [compound 4, (4‐(4‐Hydroxyphenyl)piperazin‐1‐yl)(2‐fluorophenyl)methanone] | 15.2 ± 0.9 µM | 142 to 143 °C | – |
| O=C(c1cccc(F)c1)N1CCN(c2ccc(O)cc2)CC1 [compound 5, (4‐(4‐Hydroxyphenyl)piperazin‐1‐yl)(3‐fluorophenyl)methanone] | 22.6 ± 1.3 µM | 145 to 146 °C | – |
| O=C(c1ccccc1Cl)N1CCN(c2ccc(O)cc2)CC1 [compound 7, (4‐(4‐Hydroxyphenyl)piperazin‐1‐yl)(2‐chlorophenyl)methanone] | < 5 µM and 2.6 µM | 169 to 170 °C | inhibitory effect on monophenolase activity of AbTYR [4]: active inhibitors; EC50 [5]: 13.2 ± 0.5 µM; cytotoxic effect (MTT) (B16F10 cells): no cytotoxic effect |
| O=C(c1cccc(Cl)c1)N1CCN(c2ccc(O)cc2)CC1 [compound 8, (4‐(4‐Hydroxyphenyl)piperazin‐1‐yl)(3‐chlorophenyl)methanone] | 9 ± 1 µM | 138 to 139 °C | – |
| O=C(c1ccc(Cl)cc1)N1CCN(c2ccc(O)cc2)CC1 [compound 9, (4‐(4‐Hydroxyphenyl)piperazin‐1‐yl)(4‐chlorophenyl)methanone] | 8.9 ± 0.9 µM | – | – |
| O=C(c1ccccc1Br)N1CCN(c2ccc(O)cc2)CC1 [compound 11, (4‐(4‐Hydroxyphenyl)piperazin‐1‐yl)(2‐bromophenyl)methanone] | < 5 µM and 4.5 µM | 180 to 181 °C | inhibitory effect on monophenolase activity of AbTYR [4]: active inhibitors; EC50 [5]: 13.2 ± 1.1 µM; cytotoxic effect (MTT) (B16F10 cells): no cytotoxic effect |
| O=C(c1cccc(Br)c1)N1CCN(c2ccc(O)cc2)CC1 [compound 12, (4‐(4‐Hydroxyphenyl)piperazin‐1‐yl)(3‐bromophenyl)methanone] | 16.4 ± 1.9 µM | – | – |
| O=C(c1ccc(Br)cc1)N1CCN(c2ccc(O)cc2)CC1 [compound 13, (4‐(4‐Hydroxyphenyl)piperazin‐1‐yl)(4‐bromophenyl)methanone] | 39.6 ± 0.9 µM | 190 to 191 °C | – |
| Cc1ccccc1C(=O)N1CCN(c2ccc(O)cc2)CC1 [compound 14, [4‐(4‐Hydroxyphenyl)piperazin‐1‐yl](2‐methylphenyl)methanone] | 29.9 ± 2 µM | 127 to 128 °C | – |
| Cc1cccc(C(=O)N2CCN(c3ccc(O)cc3)CC2)c1 [compound 15, [4‐(4‐Hydroxyphenyl)piperazin‐1‐yl](3‐methylphenyl)methanone] | 31.7 ± 0.5 µM | 155 to 156 °C | – |
| Cc1ccc(C(=O)N2CCN(c3ccc(O)cc3)CC2)cc1 [compound 16, [4‐(4‐Hydroxyphenyl)piperazin‐1‐yl](4‐methylphenyl)methanone] | 34.4 ± 0.5 µM | 162 to 163 °C | – |
| O=C(c1ccccc1C(F)(F)F)N1CCN(c2ccc(O)cc2)CC1 [compound 17, (4‐(4‐Hydroxyphenyl)piperazin‐1‐yl)(2‐(trifluoromethyl)phenyl)methanone] | 4.6 ± 0.3 µM | 152 to 153 °C | inhibitory effect on monophenolase activity of AbTYR [4]: active inhibitors; EC50 [5]: 9 ± 0.9 µM; cytotoxic effect (MTT) (B16F10 cells): no cytotoxic effect |
| O=C(c1cccc(C(F)(F)F)c1)N1CCN(c2ccc(O)cc2)CC1 [compound 18, (4‐(4‐Hydroxyphenyl)piperazin‐1‐yl)(3‐(trifluoromethyl)phenyl)methanone] | 5.5 ± 0.2 µM | 127 to 128 °C | – |

| Structure (SMILES) | IC50 [3] | melting point | other results |
| --- | --- | --- | --- |
| O=C(c1ccc(C(F)(F)F)cc1)N1CCN(c2ccc(O)cc2)CC1 [compound 19, (4‐(4‐Hydroxyphenyl)piperazin‐1‐yl)(4‐(trifluoromethyl)phenyl)methanone] | 35.1 ± 0.5 µM | 201 to 202 °C | – |
| O=C(c1ccc(C(F)(F)F)cc1C(F)(F)F)N1CCN(c2ccc(O)cc2)CC1 [compound 20, (4‐(4‐Hydroxyphenyl)piperazin‐1‐yl)(2,4‐bis(trifluoromethyl)phenyl)methanone] | 18.2 ± 2.4 µM | 194 to 195 °C | – |
| COc1cccc(C(=O)N2CCN(c3ccc(O)cc3)CC2)c1 [compound 22, [4‐(4‐Hydroxyphenyl)piperazin‐1‐yl](3‐methoxyphenyl)methanone] | 9.8 ± 0.4 µM | – | – |
| COc1ccc(C(=O)N2CCN(c3ccc(O)cc3)CC2)cc1 [compound 23, [4‐(4‐Hydroxyphenyl)piperazin‐1‐yl](4‐methoxyphenyl)methanone] | 14.9 ± 0.7 µM | 177 to 178 °C | – |
| COc1ccc(C(=O)N2CCN(c3ccc(O)cc3)CC2)c(OC)c1 [compound 24, [4‐(4‐Hydroxyphenyl)piperazin‐1‐yl](2,4‐dimethoxyphenyl)methanone] | 16.7 ± 2 µM | – | – |
| O=C(c1ccc(F)cc1F)N1CCN(c2ccc(O)cc2)CC1 [compound 25, (4‐(4‐Hydroxyphenyl)piperazin‐1‐yl)(2,4‐difluorophenyl)methanone] | 17.5 ± 1.3 µM | 180 to 181 °C | – |
| O=C(c1ccc(Br)cc1Br)N1CCN(c2ccc(O)cc2)CC1 [compound 26, (4‐(4‐Hydroxyphenyl)piperazin‐1‐yl)(2,4‐dibromophenyl)methanone] | 9.5 ± 0.3 µM | 176 to 177 °C | – |
| Cc1ccc(C(=O)N2CCN(c3ccc(O)cc3)CC2)c(C)c1 [compound 27, [4‐(4‐Hydroxyphenyl)piperazin‐1‐yl](2,4‐dimethylphenyl)methanone] | 33.7 ± 0.7 µM | 164 to 165 °C | – |
| O=C(c1ccccc1[N+](=O)[O-])N1CCN(c2ccc(O)cc2)CC1 [compound 28, (4‐(4‐hydroxyphenyl)piperazin‐1‐yl)(2‐nitrophenyl)methanone] | 7.4 ± 0.7 µM | 184 to 185 °C | – |
| O=C(c1cccc([N+](=O)[O-])c1)N1CCN(c2ccc(O)cc2)CC1 [compound 29, (4‐(4‐Hydroxyphenyl)piperazin‐1‐yl)(3‐nitrophenyl)methanone] | 21.8 ± 1.2 µM | – | – |
| O=C(c1ccc([N+](=O)[O-])cc1)N1CCN(c2ccc(O)cc2)CC1 [compound 30, (4‐(4‐Hydroxyphenyl)piperazin‐1‐yl)(4‐nitrophenyl)methanone] | 23.2 ± 1.5 µM | 157 to 158 °C | – |
| O=C(c1ccc([N+](=O)[O-])cc1[N+](=O)[O-])N1CCN(c2ccc(O)cc2)CC1 [compound 31, (4‐(4‐Hydroxyphenyl)piperazin‐1‐yl)(2,4‐dinitrophenyl)methanone] | 7.6 ± 0.05 µM | 225 to 226 °C | – |
| Nc1ccccc1C(=O)N1CCN(c2ccc(O)cc2)CC1 [compound 32, (4‐(4‐Hydroxyphenyl)piperazin‐1‐yl)(2‐aminophenyl)methanone] | 66.4 ± 2.1 µM | – | – |
| Nc1cccc(C(=O)N2CCN(c3ccc(O)cc3)CC2)c1 [compound 33, (4‐(4‐Hydroxyphenyl)piperazin‐1‐yl)(3‐aminophenyl)methanone] | 35.7 ± 1.05 µM | 95 to 96 °C | – |
| Nc1ccc(C(=O)N2CCN(c3ccc(O)cc3)CC2)cc1 [compound 34, (4‐(4‐Hydroxyphenyl)piperazin‐1‐yl)(4‐aminophenyl)methanone] | 43.9 ± 3.4 µM | 94 to 95 °C | – |
| Nc1ccc(C(=O)N2CCN(c3ccc(O)cc3)CC2)c(N)c1 [compound 35, (4‐(4‐Hydroxyphenyl)piperazin‐1‐yl)(2,4‐diaminophenyl)methanone] | 82.4 ± 1.1 µM | 80 to 81 °C | – |
